Laboratory results published in ChEMBL document CHEMBL4002591 (J Med Chem, 2017).
pIC50: −log10 of the molar value.

Assays:
[1] = molecular target: T1, Protein mono-ADP-ribosyltransferase PARP12 (Homo sapiens, UniProt Q9H0J9); assay: Inhibition of PARP12 (unknown origin)
T1 sequence (Q9H0J9 whole entry): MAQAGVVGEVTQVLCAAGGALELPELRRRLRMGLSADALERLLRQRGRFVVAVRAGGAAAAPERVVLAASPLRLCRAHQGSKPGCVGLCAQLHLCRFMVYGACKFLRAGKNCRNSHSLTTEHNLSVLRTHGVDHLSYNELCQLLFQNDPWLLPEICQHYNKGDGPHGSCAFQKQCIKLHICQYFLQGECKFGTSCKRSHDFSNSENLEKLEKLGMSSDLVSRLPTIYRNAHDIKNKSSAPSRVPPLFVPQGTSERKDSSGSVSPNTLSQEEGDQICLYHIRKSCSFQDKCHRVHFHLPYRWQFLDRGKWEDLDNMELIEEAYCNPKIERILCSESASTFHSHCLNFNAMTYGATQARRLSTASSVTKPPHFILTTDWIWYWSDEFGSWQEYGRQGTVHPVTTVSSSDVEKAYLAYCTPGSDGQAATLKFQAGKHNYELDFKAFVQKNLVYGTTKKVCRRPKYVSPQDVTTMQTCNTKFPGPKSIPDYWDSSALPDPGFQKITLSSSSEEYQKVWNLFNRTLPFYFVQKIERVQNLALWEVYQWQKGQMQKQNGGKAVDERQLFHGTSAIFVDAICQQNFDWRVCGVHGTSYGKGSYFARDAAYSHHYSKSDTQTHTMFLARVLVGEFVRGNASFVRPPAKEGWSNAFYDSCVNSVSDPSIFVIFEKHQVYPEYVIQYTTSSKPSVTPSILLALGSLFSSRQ

[2] = molecular target: Poly [ADP-ribose] polymerase 2 (Homo sapiens, UniProt Q9UGN5); assay: Inhibition of recombinant human N-terminal GST-tagged PARP2 (2 to 583 residues) expressed in baculovirus infected Sf9 cells measured after 1 hr by chemiluminescence assay
[3] = molecular target: Poly [ADP-ribose] polymerase 1 (Homo sapiens, UniProt P09874); assay: Inhibition of PARP1 (unknown origin)
Chain of Poly [ADP-ribose] polymerase 1 (P09874 whole entry): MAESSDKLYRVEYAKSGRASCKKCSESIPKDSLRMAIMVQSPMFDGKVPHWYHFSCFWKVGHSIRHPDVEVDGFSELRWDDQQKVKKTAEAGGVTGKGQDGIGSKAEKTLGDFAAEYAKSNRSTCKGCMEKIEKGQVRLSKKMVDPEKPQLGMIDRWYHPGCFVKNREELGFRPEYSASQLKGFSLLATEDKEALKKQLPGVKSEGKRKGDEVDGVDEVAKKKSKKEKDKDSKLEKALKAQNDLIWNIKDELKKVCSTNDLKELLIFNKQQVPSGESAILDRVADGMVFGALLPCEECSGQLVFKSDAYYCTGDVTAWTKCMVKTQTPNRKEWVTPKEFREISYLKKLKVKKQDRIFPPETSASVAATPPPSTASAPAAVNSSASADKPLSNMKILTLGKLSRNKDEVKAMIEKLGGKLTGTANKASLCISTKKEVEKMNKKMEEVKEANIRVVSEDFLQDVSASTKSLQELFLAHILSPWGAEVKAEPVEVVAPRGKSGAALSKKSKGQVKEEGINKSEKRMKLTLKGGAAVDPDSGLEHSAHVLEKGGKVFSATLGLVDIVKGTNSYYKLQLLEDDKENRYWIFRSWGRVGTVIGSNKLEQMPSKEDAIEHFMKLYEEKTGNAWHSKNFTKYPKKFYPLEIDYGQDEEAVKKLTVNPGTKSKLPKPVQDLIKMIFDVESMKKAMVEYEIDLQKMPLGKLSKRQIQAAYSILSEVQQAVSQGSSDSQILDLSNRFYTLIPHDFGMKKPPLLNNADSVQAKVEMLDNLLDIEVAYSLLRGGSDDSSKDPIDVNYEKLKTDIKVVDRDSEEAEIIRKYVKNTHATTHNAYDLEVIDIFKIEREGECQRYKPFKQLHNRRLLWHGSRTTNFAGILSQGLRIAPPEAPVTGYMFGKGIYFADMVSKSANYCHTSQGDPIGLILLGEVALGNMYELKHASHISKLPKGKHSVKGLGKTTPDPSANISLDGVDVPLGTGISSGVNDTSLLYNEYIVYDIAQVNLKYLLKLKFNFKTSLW

Chain of Poly [ADP-ribose] polymerase 2 (Q9UGN5 whole entry, the tested form may be a part): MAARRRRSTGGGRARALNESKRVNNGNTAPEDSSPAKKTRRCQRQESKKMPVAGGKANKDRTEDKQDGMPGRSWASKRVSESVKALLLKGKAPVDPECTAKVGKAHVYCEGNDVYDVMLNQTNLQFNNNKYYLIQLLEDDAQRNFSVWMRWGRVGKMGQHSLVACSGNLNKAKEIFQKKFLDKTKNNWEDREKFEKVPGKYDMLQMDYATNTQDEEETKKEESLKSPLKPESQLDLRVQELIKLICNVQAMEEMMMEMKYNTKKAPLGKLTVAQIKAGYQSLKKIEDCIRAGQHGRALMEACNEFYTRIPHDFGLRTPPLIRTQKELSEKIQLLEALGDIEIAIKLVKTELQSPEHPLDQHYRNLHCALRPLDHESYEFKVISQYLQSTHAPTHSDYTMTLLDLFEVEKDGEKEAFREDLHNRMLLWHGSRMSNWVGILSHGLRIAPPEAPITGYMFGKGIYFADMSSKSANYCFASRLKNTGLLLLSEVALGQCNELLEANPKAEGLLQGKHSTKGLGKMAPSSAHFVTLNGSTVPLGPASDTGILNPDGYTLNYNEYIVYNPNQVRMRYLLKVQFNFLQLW

SMILES	pIC50 [1]	pIC50 [2]	pIC50 [3]
Cc1cccc2c(=O)[nH]c(CCC(=O)Nc3ccc(C(=O)Nc4cccc5cccnc45)cc3)nc12	< 4.00	4.94	5.19
O=C(CCc1nc2ccccc2c(=O)[nH]1)Nc1ccc(C(=O)Nc2cccc3cccnc23)cc1	< 4.00	5.16	
